According to ChEMBL document CHEMBL5614402, “Discovery of novel pyrazolo[1,5-a]pyrimidine derivatives as potent reversal agents against ABCB1-mediated multidrug resistance” (Eur J Med Chem, 2024):
The source made the active and inactive calls. The rule behind the calls is not given here.

Columns and labels:
NCI/ADR-RES [1] = assay: Antiproliferative activity against human MCF7ADR cells assessed as survival rate at 5 uM incubated for 72 hrs by MTT assay; type: functional; settings: read-out: Survival
[2] = Cytotoxicity against HUVECs assessed as cell viability at 10 uM; type: toxicity, cell-based; settings: human, HUVEC cells, read-out: Activity
NCI/ADR-RES [3] = assay: Induction of paclitaxel mediated apoptosis in human MCF7ADR cells assessed as nuclear fragmentation at 10 uM in presence of paclitaxel by DAPI staining based assay; type: functional, cell-based
NCI/ADR-RES [4] = assay: Induction of paclitaxel mediated apoptosis in human MCF7ADR cells assessed as viable cells at 10 uM in presence of paclitaxel by Annexin V-FITC and propidium iodide staining based flow cytometry analysis (reference value: 85.75%); type: functional; settings: read-out: Activity
MCF7 [5] = assay: Reversal of paclitaxel resistance in human MCF7 cells assessed as reversal fold by measuring ratio of paclitaxel IC50 to paclitaxel IC50 in presence of test compound at 5 uM incubated for 72 hrs by MTT assay; type: functional
NCI/ADR-RES [6] = assay: Induction of paclitaxel mediated apoptosis in human MCF7ADR cells assessed as early apoptotic cells at 10 uM in presence of paclitaxel by Annexin V-FITC and propidium iodide staining based flow cytometry analysis (reference value: 3.87%); type: functional
NCI/ADR-RES [7] = assay: Induction of apoptosis in human MCF7ADR cells assessed as early apoptotic cells at 10 uM by Annexin V-FITC and propidium iodide staining based flow cytometry analysis (reference value: 3.87%); type: functional
NCI/ADR-RES [8] = assay: Antiproliferative activity against human MCF7ADR cells incubated for 72 hrs by MTT assay; type: functional, cell-based
NCI/ADR-RES [9] = assay: Induction of DNA damage in human MCF7ADR cells at 10 nM by comet assay; type: functional, cell-based
NCI/ADR-RES [10] = assay: Induction of DNA damage in human MCF7ADR cells at 10 uM by comet assay; type: functional, cell-based
NCI/ADR-RES [11] = assay: Induction of cell cycle arrest in human MCF7ADR cells assessed as accumulation of cells at G2/M phase at 10 uM in presence of paclitaxel by propidium iodide staining based flow cytometry analysis; type: functional
Tubulin (Homo sapiens) [12] = target: T1, Tubulin (Homo sapiens) (UniProt P68371+Q9H4B7+P0DPH7+P68366+Q13509+Q71U36+P04350+Q3ZCM7+P07437+P68363+Q9BQE3+Q6PEY2+Q13885+Q9BVA1+Q9BUF5); assay: Induction of paclitaxel mediated tubulin […] in human MCF7ADR cells assessed as appearance of filamentous microtubules at 10 uM incubated for 72 hrs in presence of paclitaxel; type: cell-based; settings: filed as activator
NCI/ADR-RES [13] = assay: Induction of paclitaxel mediated apoptosis in human MCF7ADR cells assessed as late apoptotic cells at 10 uM in presence of paclitaxel by Annexin V-FITC and propidium iodide staining based flow cytometry analysis (reference value: 7.24%); type: functional
Tubulin (Homo sapiens) [14] = target: T1, Tubulin (Homo sapiens); assay: Induction of paclitaxel mediated tubulin […] in human MCF7ADR cells assessed as appearance of cellular multinucleation at 10 uM incubated for 72 hrs in presence of paclitaxel; type: cell-based; settings: filed as activator
NCI/ADR-RES [15] = assay: Induction of paclitaxel mediated apoptosis in human MCF7ADR cells assessed as reduction in nuclei size at 10 uM in presence of paclitaxel by DAPI staining based assay; type: functional, cell-based
NCI/ADR-RES [16] = assay: Effect on ABCB1 expression in human MCF7ADR cells upto 15 uM by Western blotting analysis; type: functional, cell-based
Tubulin (Homo sapiens) [17] = target: T1, Tubulin (Homo sapiens); assay: Inhibition of tubulin depolymerization in human MCF7ADR cells assessed as change in microtubule morphology at 10 uM incubated for 72 hrs; type: cell-based
NCI/ADR-RES [18] = assay: Reversal of paclitaxel resistance in human MCF7ADR cells assessed as reversal fold by measuring ratio of paclitaxel IC50 to paclitaxel IC50 in presence of test compound at 10 uM incubated for 72 hrs by MTT assay; type: functional
NCI/ADR-RES [19] = assay: Synergistic antiproliferative activity against human MCF7ADR cells assessed as combination index at 10 uM in presence of PTX; type: functional
NCI/ADR-RES [20] = assay: Reversal of paclitaxel resistance in human MCF7ADR cells assessed as reduction in paclitaxel IC50 at 10 uM pretreated with compound for 4 hrs followed by paclitaxel addition and measured after 72 hrs by MTT assay (reference value: 6.68 +/- 0.35 microM); type: functional, cell-based
NCI/ADR-RES [21] = assay: Effect on subcellular localization of ABCB1 in human MCF7ADR cells at 10 uM incubated for 48 hrs by DAPI staining based assay; type: functional, cell-based
NCI/ADR-RES [22] = assay: Induction of apoptosis in human MCF7ADR cells assessed as late apoptotic cells at 10 uM by Annexin V-FITC and propidium iodide staining based flow cytometry analysis (reference value: 7.24%); type: functional
MCF7 [23] = assay: Reversal of paclitaxel resistance in human MCF7 cells assessed as reversal fold by measuring ratio of paclitaxel IC50 to paclitaxel IC50 in presence of test compound at 10 uM incubated for 72 hrs by MTT assay; type: functional
MCF7 [24] = assay: Reversal of paclitaxel resistance in human MCF7 cells assessed as reduction in paclitaxel IC50 at 10 uM pretreated with compound for 4 hrs followed by paclitaxel addition and measured after 72 hrs by MTT assay (reference value: 2.60 +/- 0.36 nM); type: functional, cell-based
NCI/ADR-RES [25] = assay: Induction of paclitaxel mediated DNA damage in human MCF7ADR cells at 10 uM in presence of paclitaxel by comet assay; type: functional, cell-based
NCI/ADR-RES [26] = assay: Induction of paclitaxel mediated apoptosis in human MCF7ADR cells assessed as necrotic cells at 10 uM in presence of paclitaxel by Annexin V-FITC and propidium iodide staining based flow cytometry analysis (reference value: 3.14%); type: functional
NCI/ADR-RES [27] = assay: Inhibition of cell proliferation in human MCF7ADR cells assessed as reduction in cellular proliferation cells at 10 uM in presence of paclitaxel by EdU staining based assay; type: functional
MCF7 [28] = assay: Antiproliferative activity against human MCF7 cells assessed as survival rate at 5 uM incubated for 72 hrs by MTT assay; type: functional; settings: read-out: Survival
[29] = Cytotoxicity against HEK293T cells assessed as cell viability at 10 uM; type: toxicity, cell-based, HEK-293T; settings: human, read-out: Activity
NCI/ADR-RES [30] = assay: Induction of apoptosis in human MCF7ADR cells assessed as necrotic cells at 10 uM by Annexin V-FITC and propidium iodide staining based flow cytometry analysis (reference value: 3.14%); type: functional
[31] = Cytotoxicity against human GES1 cells assessed as cell viability at 10 uM; type: toxicity, cell-based; settings: read-out: Activity
MCF7 [32] = assay: Antiproliferative activity against human MCF7 cells incubated for 72 hrs by MTT assay; type: functional, cell-based; settings: MCF7, 72 h
NCI/ADR-RES [33] = assay: Reversal of paclitaxel resistance in human MCF7ADR cells assessed as reduction in paclitaxel IC50 at 5 uM pretreated with compound for 4 hrs followed by paclitaxel addition and measured after 72 hrs by MTT assay (reference value: 6.68 +/- 0.35 microM); type: functional, cell-based
NCI/ADR-RES [34] = assay: Induction of apoptosis in human MCF7ADR cells assessed as viable cells at 10 uM by Annexin V-FITC and propidium iodide staining based flow cytometry analysis (reference value: 85.75%); type: functional; settings: read-out: Activity
MCF7 [35] = assay: Reversal of paclitaxel resistance in human MCF7 cells; type: functional, cell-based
MCF7 [36] = assay: Reversal of paclitaxel resistance in human MCF7 cells assessed as reduction in paclitaxel IC50 at 5 uM pretreated with compound for 4 hrs followed by paclitaxel addition and measured after 72 hrs by MTT assay (reference value: 2.60 +/- 0.36 nM); type: functional, cell-based
NCI/ADR-RES [37] = assay: Reversal of paclitaxel resistance in human MCF7ADR cells at 10 uM; type: functional, cell-based
[38] = target: T2, ATP-dependent translocase ABCB1 (Homo sapiens, UniProt P08183); assay: Binding affinity to ABCB1 (unknown origin) assessed as change in thermal stability at 200 uM by CETSA
NCI/ADR-RES [39] = assay: Reversal of paclitaxel resistance in human MCF7ADR cells assessed as reversal fold by measuring ratio of paclitaxel IC50 to paclitaxel IC50 in presence of test compound at 5 uM incubated for 72 hrs by MTT assay; type: functional
[40] = target: T2, ATP-dependent translocase ABCB1; assay: Binding affinity to ABCB1 (unknown origin) assessed as reduction in protein hydrolysis at 10 to 100 uM incubated for 1 hr followed by alkaline protease addition and measured after 15 mins by Western blotting analysis; settings: 1.25 h, dose 10-100 µM, time 75 min
NCI/ADR-RES [41] = assay: Inhibition of colony formation in human MCF7ADR cells at 10 uM incubated for 7 days in presence of paclitaxel by crystal violet staining based assay; type: functional, cell-based; settings: time 7.0 day

T2 sequence (P08183 whole entry): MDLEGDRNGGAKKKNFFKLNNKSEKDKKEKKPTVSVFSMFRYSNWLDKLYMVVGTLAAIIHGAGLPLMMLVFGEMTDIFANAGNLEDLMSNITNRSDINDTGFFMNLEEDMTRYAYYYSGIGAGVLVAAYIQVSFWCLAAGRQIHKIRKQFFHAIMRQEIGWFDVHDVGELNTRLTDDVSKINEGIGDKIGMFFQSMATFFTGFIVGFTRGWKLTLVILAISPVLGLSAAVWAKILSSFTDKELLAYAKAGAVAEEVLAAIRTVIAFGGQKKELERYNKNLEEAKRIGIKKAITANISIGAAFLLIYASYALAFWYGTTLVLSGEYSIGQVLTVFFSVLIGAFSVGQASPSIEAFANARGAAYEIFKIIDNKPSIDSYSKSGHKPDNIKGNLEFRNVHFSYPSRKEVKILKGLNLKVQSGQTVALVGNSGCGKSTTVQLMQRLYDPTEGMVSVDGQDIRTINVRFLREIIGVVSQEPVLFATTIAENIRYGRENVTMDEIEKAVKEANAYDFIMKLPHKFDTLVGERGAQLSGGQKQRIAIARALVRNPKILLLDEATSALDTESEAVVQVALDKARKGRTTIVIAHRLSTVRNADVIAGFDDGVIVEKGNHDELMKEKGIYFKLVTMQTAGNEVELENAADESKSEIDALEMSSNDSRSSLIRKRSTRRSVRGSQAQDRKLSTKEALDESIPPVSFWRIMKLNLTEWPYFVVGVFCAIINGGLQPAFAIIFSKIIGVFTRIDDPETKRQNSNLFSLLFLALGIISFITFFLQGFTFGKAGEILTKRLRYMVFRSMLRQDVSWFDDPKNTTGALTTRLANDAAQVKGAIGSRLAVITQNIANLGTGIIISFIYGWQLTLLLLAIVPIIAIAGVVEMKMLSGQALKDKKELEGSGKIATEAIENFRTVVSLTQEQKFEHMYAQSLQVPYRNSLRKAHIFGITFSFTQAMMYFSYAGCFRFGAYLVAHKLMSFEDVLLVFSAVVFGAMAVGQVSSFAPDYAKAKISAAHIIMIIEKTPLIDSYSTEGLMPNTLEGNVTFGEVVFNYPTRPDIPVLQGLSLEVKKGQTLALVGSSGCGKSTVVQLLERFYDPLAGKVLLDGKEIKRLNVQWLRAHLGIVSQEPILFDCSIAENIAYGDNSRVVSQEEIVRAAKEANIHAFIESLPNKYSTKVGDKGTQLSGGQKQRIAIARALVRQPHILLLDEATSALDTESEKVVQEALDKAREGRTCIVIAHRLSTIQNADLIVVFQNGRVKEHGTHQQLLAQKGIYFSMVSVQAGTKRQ

In the case of `COc1cc(-c2c(C)nc3cc(-c4cccs4)nn3c2-c2cc(OC)c(OC)c(OC)c2)cc(OC)c1OC`, the viability at 5 µM (NCI/ADR-RES [1]) is reported as 95%, the viability at 10 µM [2] is reported as greater than 80% and the Activity (NCI/ADR-RES [3]) is reported as “Active”. For the same compound, the viability at 10 µM (NCI/ADR-RES [4]) was 52.3%, the Ratio (MCF7 [5]) was 0.88 and the Activity (NCI/ADR-RES [6]) was 13.87%. For the same compound, the Activity (NCI/ADR-RES [7]) was 6.17%, the IC50 (NCI/ADR-RES [8]) was greater than 20000 nM and the Activity (NCI/ADR-RES [9]) was “Active”. The Activity (NCI/ADR-RES [10]) was “Active”, the Activity (NCI/ADR-RES [11]) was “Active” and the Activity (Tubulin (Homo sapiens) [12]) was “Active”. The Activity (NCI/ADR-RES [13]) was 29.54%, the Activity (Tubulin (Homo sapiens) [14]) was “Active” and the Activity (NCI/ADR-RES [15]) was “Active”. For the same compound, the Activity (NCI/ADR-RES [16]) was “inactive”, the inhibition (Tubulin (Homo sapiens) [17]) was “inactive” and the Ratio (NCI/ADR-RES [18]) was 663.44. The CI (NCI/ADR-RES [19]) was 0.09, the IC50 (NCI/ADR-RES [20]) was 10.1 nM and the Activity (NCI/ADR-RES [21]) was “inactive”. The Activity (NCI/ADR-RES [22]) was 7.98%, the Ratio (MCF7 [23]) was 0.98 and the IC50 (MCF7 [24]) was 2.65 nM. For the same compound, the Activity (NCI/ADR-RES [25]) was “Active”, the Activity (NCI/ADR-RES [26]) was 4.28% and the inhibition (NCI/ADR-RES [27]) was “Active”. It also gave a viability at 5 µM (MCF7 [28]) of 97.7%, a viability at 10 µM [29] greater than 80% and an Activity (NCI/ADR-RES [30]) of 1.44%. The viability at 10 µM [31] was greater than 80%, the IC50 (MCF7 [32]) was greater than 20000 nM and the IC50 (NCI/ADR-RES [33]) was 27 nM. The viability at 10 µM (NCI/ADR-RES [34]) was 84.4%, the Activity (MCF7 [35]) was “inactive” and the IC50 (MCF7 [36]) was 2.96 nM. The Activity (NCI/ADR-RES [37]) was “Active”, the Activity [38] was “Active” and the Ratio (NCI/ADR-RES [39]) was 247.4. For the same compound, the Activity [40] was “Active” and the inhibition (NCI/ADR-RES [41]) was “Active”.
